Among the test systems are XF498; SNB-78; Hs-578T; MDA-MB-231; MDA-N; BT-549; 786-0; T47D; LXFL 529.
Holding throughout (assay): NCI anticancer screen, dose series, 48 h

The structures appear in SMILES notation.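 96-well plates; 48 h exposure; 5 concentrations. Endpoints by linear interpolation between flanking doses. Not reached: highest tested concentration assigned. At the GI50, growth is halved.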 Calls of active or inactive are those of the source. No stated cut-off is given here; in the data, active = GI50 up to about 1.1 µM and inactive = higher.

As to `COc1cc(C2C(C(=O)O)=C(CO)Oc3cc4c(cc32)OCO4)cc(OC)c1OC` (centres undefined), the GI50 in the test with XF498 and with SNB-78 was > 100 µM (inactive) throughout.
`COc1ccc2nc3ccc(OC)cc3c([S+]([O-])CCCl)c2c1` (centres undefined): the GI50 with Hs-578T is 2.24 µM (inactive); in the test with MDA-MB-231, 5.87 µM (inactive); in the test on MDA-N it was 2.44 µM (inactive); in the test with BT-549, 15.1 µM (inactive); in the test with 786-0, 1.76 µM (inactive); in the test with T47D, 2.04 µM (inactive).
`C=C1C(=O)OC2C1CC1OC2C(C)CCC/C(C)=C\CCC1(C)O` (centres undefined): the values for the GI50 in the test on XF498 and with SNB-78 were 12 µM (inactive) and 12.1 µM (inactive), respectively.
As to `C[S+](C)([O-])=Nn1c(=O)n2n(c1=O)[C@H]1CC[C@@H]2C1`, the GI50 with Hs-578T, with MDA-MB-231, with MDA-N and in the test on T47D was > 100 µM (inactive) throughout.
Consider `CC12Nc3ccccc3C1=C(c1ccccc1)CC1C(=O)OC(=O)C12` (centres undefined), for which the GI50 in the test with XF498, in the test on LXFL 529, with SNB-78 and in the test with 786-0 was > 100 µM (inactive) each time.
For `COC1=CC(=O)C=C(OC)C1=O` [2,6-DIMETHOXYQUINONE], the GI50 was 2.99 µM (inactive) in the test on XF498 and 16.8 µM (inactive) in the test with SNB-78.
As for `CN(C)c1ccc(N2C(=S)SC(=N\c3ccccc3)/C2=N/c2ccccc2)cc1`, the GI50 in the test on Hs-578T, in the test on MDA-MB-231, in the test on MDA-N, in the test with BT-549 and in the test on T47D was > 100 µM (inactive) in each case.
Consider `CCN(CC)CCCNc1ncc(C)c2[nH]c3ccncc3c12`, for which the GI50 is 11.4 µM (inactive) in the test on XF498 and 19.1 µM (inactive) in the test on SNB-78.
For `NCCCNCCSSCc1ccccc1CSSCCNCCCN`, the GI50 in the test with XF498 was 85.1 µM (inactive); in the test with LXFL 529, 30.4 µM (inactive); with SNB-78, 56.5 µM (inactive).
Take `COc1cc(C2c3cc4c(cc3[C@@H](Nc3cnc5ccccc5c3)C3COC(=O)[C@H]23)OCO4)cc(OC)c1O` (some centres undefined): the GI50 in the test on XF498 is 0.474 µM (active); in the test on SNB-78, 2.69 µM (inactive).
With `CC(NC(C#N)CC12CC3CC(CC(C3)C1)C2)c1ccccc1` (centres undefined), the GI50 in the test on MDA-MB-231 is 81.1 µM (inactive); in the test on MDA-N, > 100 µM (inactive); in the test with T47D it was 52 µM (inactive).
`CCCCCCCCCCCC[N+](CCCCCCCCCCCC)=C1SCCS1`: the results for the GI50 with LXFL 529, with SNB-78 and in the test on 786-0 were 3.81 µM (inactive), 3.61 µM (inactive) and 3.52 µM (inactive), respectively.
As to `CCC1(c2ccccc2)C(=O)N=C(c2ccccc2)N1CCc1ccccc1` (centres undefined), the GI50 with Hs-578T, with MDA-MB-231, with MDA-N, in the test with BT-549, with 786-0 and with T47D was > 100 µM (inactive) each time.
On to `COc1ccc2c(c1)c1cc(OC)ccc1n2CCCCOc1ccc(-c2c3ccccc3c(-c3ccc(OCCCCn4c5ccc(OC)cc5c5cc(OC)ccc54)cc3)c3ccccc23)cc1`, for which, in the test with XF498, the GI50 is > 100 µM (inactive).
Take `COc1ccc(C(=O)/C(Br)=C/C(=O)O)cc1`: the GI50 was 28.2 µM (inactive) with MDA-MB-231; 4.28 µM (inactive) in the test on XF498; 20 µM (inactive) in the test with MDA-N; 17.9 µM (inactive) in the test with BT-549; 53.2 µM (inactive) in the test on T47D.
`CC(C)c1ccccc1SCc1cc(=O)cc(CSc2ccccc2C(C)C)o1`: the GI50 in the test with Hs-578T was 13.5 µM (inactive); in the test with MDA-MB-231, 17.9 µM (inactive); in the test with MDA-N, 18.8 µM (inactive); in the test with T47D it was 24 µM (inactive).
Take `O=NN(CCCl)C(=O)N[C@H]1CCCC[C@@H]1Cl`: the GI50 is > 100 µM (inactive) in the test with XF498, > 100 µM (inactive) with LXFL 529 and 37.8 µM (inactive) in the test with 786-0.
With `CC(=O)C(C(=O)C(=O)Nc1cc(Cl)c(Cl)cc1Cl)c1csc(N)n1` (centres undefined), the GI50 in the test on XF498, with LXFL 529 and with SNB-78 was > 100 µM (inactive) each time.
Regarding `CCOC(=O)Oc1ccc(C(CNC(C)C)OC(=O)OCC)cc1OC(=O)OCC` (centres undefined), the GI50 in the test with Hs-578T is > 100 µM (inactive); in the test on MDA-MB-231, 26.2 µM (inactive); with MDA-N, > 100 µM (inactive); in the test on BT-549, > 100 µM (inactive); in the test on 786-0, > 100 µM (inactive); in the test on T47D, > 100 µM (inactive).
On to `N/N=C1\C(=O)N(c2ccc(Cl)c(Cl)c2)C(=O)C1C(=O)Nc1ccc(Cl)c(Cl)c1` (centres undefined), for which the GI50 in the test with LXFL 529 is 46.5 µM (inactive); in the test with SNB-78, 24.7 µM (inactive); with 786-0, 89.5 µM (inactive).
In the case of `COC(=O)C1=C(OC(=O)/C=C/c2ccc(Cl)cc2)C(C(=O)OC)[C@@]2(O)[C@@H](C(=O)OC)[C@H](C)C[C@@H]1[C@@H]2C(=O)OC` (some centres undefined), the GI50 was 3.9 µM (inactive) in the test on Hs-578T; 24.5 µM (inactive) in the test on MDA-MB-231; 10.4 µM (inactive) in the test on MDA-N; 21.6 µM (inactive) in the test on BT-549; 26.1 µM (inactive) in the test on T47D.

The values above are taken from ChEMBL document CHEMBL1201862, “PubChem BioAssay data set” (2004).
